Data taken from US20040192699A1, “Optic nerve protecting agents containing alpha1 receptor blocker as active ingredient” (Santen Pharmaceutical Co., Ltd., priority 2001, published 2004).
Structures can show the parent of a compound that is named as a salt.

Legend:
[1] = test system: rat fetal retinal nerve cells in culture; assay: Death of rat fetal retinal nerve cells in culture induced by glutamate addition (trypan blue dye exclusion); format: cell-based; settings: 10 min, then 1 h drug-free, average
Protocol: (1) The action of the α1 receptor blocker on the death of rat fetal retinal nerve cells in culture as induced by glutamate addition
Retinal cells were taken out of a rat fetus (age of E18 days) and isolated, then cultured in an Eagle's basal culture medium containing 10% bovine fetus serum on a polyethylene imine-coated plastic cover slip for 7 days (37° C., 5% CO2/95% air). On the eighth day and thereafter, the cells were cultured in an Eagle's basal culture medium containing 10% horse serum. On the sixth day of the cultivation, cytosine arabinoside (10 μM) was added to suppress the growth of non-neuronal cells. On the eleventh day of the cultivation, the cells were cultured in a serum-free Eagle's basal culture medium supplemented with glutamate (1 mM) and an a, receptor blocker, for 10 minutes. Then, the cells were transferred to a serum-free Eagle's basic culture medium with no content of glutamate and an α1 receptor blocker, and cultured for one hour. Subsequently, toxicity was determined by the trypan blue dye exclusion method. Specifically, the cells were stained with 1.5% trypan blue solution for 10 minutes, fixed in 10% neutral formalin solution and rinsed with physiological saline. Subsequently, the cells were counted with a phase contrast microscope. The cells stained with trypan blue were defined as dead cells, while the cells never stained were defined as live cells. Based on the rate of the live cells to the total cells (200 or more), the survival rate of the culture cells was determined. A group with the addition of 1 mM glutamate alone and a group with the addition of both 1 mM glutamate and an α1 receptor blocker were defined as “1 mM glutamate single-addition group” and “group of 1 mM glutamate+α1 receptor blocker addition”, respectively. […] At this experiment, bunazosin hydrochloride, prazosin hydrochloride, terazosin hydrochloride and naftopidil hydrochloride were used as such α1 receptor blockers.

[2] = test system: rat fetal retinal nerve cells in culture; assay: Death of rat fetal retinal nerve cells in culture induced by serum elimination (trypan blue dye exclusion; TUNEL method); format: cell-based; design: dose or concentration left out as unconfirmed; settings: serum elimination + test compound, 24 hours, average
Protocol: (2) The action of the a, receptor blocker on the death of rat fetal retinal nerve cells in culture as induced by serum elimination
Retinal cells were taken out of a rat fetus (age of E18 days) and isolated, then cultured in an Eagle's basal culture medium containing 10% bovine fetus serum on a polylysine-coated glass cover slip for 7 days (37° C., 5% CO2/95% air). On the eighth day and thereafter, the cells were cultured in an Eagle's basal culture medium containing 10% horse serum. On the sixth day of the cultivation, cytosine arabinoside (10 μM) was added to suppress the growth of non-neuronal cells. […] Subsequently, toxicity was determined by the trypan blue dye exclusion method. Specifically, the cells were stained with 1.5% trypan blue solution for 10 minutes, fixed in 10% neutral formalin solution and rinsed with physiological saline. Subsequently, the cells were counted with a phase contrast microscope. […] Based on the rate of the live cells to the total cells (200 or more), the survival rate of the culture cells was determined. Using the TUNEL method, additionally, the TUNEL-positive cells (apoptosis cells) increasing due to the serum elimination and the TUNEL-negative cells (live cells) were counted, to calculate the rate of the TUNEL-positive cells to the total cells. […]

[3] = 1 mM glutamate + 10 μM test compound
[4] = 1 mM glutamate + 0.1 μM test compound

Row | SMILES | Survival rate (%) of retinal nerve cells in culture ([1]; 1 mM glutamate + 1 μM test compound) | Survival rate (%) of retinal nerve cells in culture [1, 3] | Survival rate (%) of retinal nerve cells in culture ([1]; 1 mM glutamate + 100 μM test compound) | Rate (%) of TUNEL-positive cells ([2]; TUNEL method) | Survival rate (%) of retinal nerve cells in culture [2] | Survival rate (%) of retinal nerve cells in culture [1, 4] | Survival rate (%) of retinal nerve cells in culture ([1]; 1 mM glutamate + 0.01 μM test compound)
1 | COc1cc2nc(N3CCN(C(=O)c4ccco4)CC3)nc(N)c2cc1OC [prazosin HCl, prazosin hydrochloride] | 65.2% | 67.1% | – | – | – | – | –
2 | CCCC(=O)N1CCCN(c2nc(N)c3cc(OC)c(OC)cc3n2)CC1 [bunazosin HCl, bunazosin hydrochloride] | – | 55.2% | 55.9% | 13% | 80% | – | –
3 | COc1ccccc1N1CCN(CC(O)COc2cccc3ccccc23)CC1 (stereo not shown) [naftopidil HCl, naftopidil hydrochloride] | – | 68.9% | – | – | – | 59.2% | –
4 | COc1cc2nc(N3CCN(C(=O)C4CCCO4)CC3)nc(N)c2cc1OC (stereo not shown) [terazosin HCl, terazosin hydrochloride] | – | – | – | – | – | 70.7% | 69.8%
